From US20260347338A1, “PYRIMIDINE/PYRIDINE DERIVATIVES OR SALTS THEREOF AND PHARMACEUTICAL COMPOSITIONS COMPRISING THE SAME” (YUHAN CORPORATION, priority 2023, published 2026)

These compounds were tested against T1, human recombinant HPK1 (Homo sapiens, UniProt Q92918) (assay: Inhibitory activity against human recombinant HPK1 (TR-FRET)). Settings: ULight-p70S6K peptide, ATP at Km, room temperature, 1 hour, 0.32 to 1000 nM compound.
T1 construct: purchased BPS Bioscience
Assay type: biochemical
Protocol: Test Example: Evaluation of Inhibitory Activity Against Human Recombinant HPK1
The inhibitory activity against human recombinant HPK1 was evaluated using the Time-Resolved Fluorescence Resonance Energy Transfer (TR-FRET) technology of Perkin-Elmer. The test compound was prepared as a 20 mM stock solution with dimethyl sulfoxide (DMSO), serially diluted in a buffer solution, and used at final compound concentrations of 0.32 to 1000 nM. The evaluation of inhibitory activity was carried out at room temperature, using recombinant human HPK1 (BPS Bioscience). Briefly, recombinant human HPK1, serially diluted each test compound, ULight-p70S6K peptide substrate (PerkinElmer), and ATP at each concentration (Km and final concentration) were added to a kinase buffer solution (50 mM HEPES pH 7.4, 10 mM MgCl2, 1 mM EGTA, 3 mM MnCl2, 2 mM DTT, and 0.01% Tween-20). The resulting mixture was added to each well of a 384-well plate (Optiplate™ 384, white, PerkinElmer). The enzyme reaction was carried out at room temperature for 1 hour. After the reaction was suspended by adding 4 μL of a stop solution (10 mM EDTA) thereto, the mixture was stirred for 1 minute and then a detection solution containing Europium-labeled anti-phosphopeptide antibody (final concentration: 2 nM, PerkinElmer) was added thereto. The signals of TR-FRET at excitation wavelength (320 nm) and emission wavelength (665 nm) were detected using a microplate reader (Envision Multilabel Reader, Perkin-Elmer). Inhibition by the test compound was measured as % inhibition in the signals, compared to the control group treated with DMSO only. The IC50 value of each compound was calculated using the GraphPad Prism program (GraphPad Software, Inc., San Diego, CA, USA). The IC50 values of test compounds for inhibitory activity against HPK1 were classified as follows: • A: IC50≤10 nM • B: 10 nM<IC50≤50 nM • C: 50 nM<IC50≤100 nM • D: IC50>100 nM

T1 sequence (Q92918 whole entry): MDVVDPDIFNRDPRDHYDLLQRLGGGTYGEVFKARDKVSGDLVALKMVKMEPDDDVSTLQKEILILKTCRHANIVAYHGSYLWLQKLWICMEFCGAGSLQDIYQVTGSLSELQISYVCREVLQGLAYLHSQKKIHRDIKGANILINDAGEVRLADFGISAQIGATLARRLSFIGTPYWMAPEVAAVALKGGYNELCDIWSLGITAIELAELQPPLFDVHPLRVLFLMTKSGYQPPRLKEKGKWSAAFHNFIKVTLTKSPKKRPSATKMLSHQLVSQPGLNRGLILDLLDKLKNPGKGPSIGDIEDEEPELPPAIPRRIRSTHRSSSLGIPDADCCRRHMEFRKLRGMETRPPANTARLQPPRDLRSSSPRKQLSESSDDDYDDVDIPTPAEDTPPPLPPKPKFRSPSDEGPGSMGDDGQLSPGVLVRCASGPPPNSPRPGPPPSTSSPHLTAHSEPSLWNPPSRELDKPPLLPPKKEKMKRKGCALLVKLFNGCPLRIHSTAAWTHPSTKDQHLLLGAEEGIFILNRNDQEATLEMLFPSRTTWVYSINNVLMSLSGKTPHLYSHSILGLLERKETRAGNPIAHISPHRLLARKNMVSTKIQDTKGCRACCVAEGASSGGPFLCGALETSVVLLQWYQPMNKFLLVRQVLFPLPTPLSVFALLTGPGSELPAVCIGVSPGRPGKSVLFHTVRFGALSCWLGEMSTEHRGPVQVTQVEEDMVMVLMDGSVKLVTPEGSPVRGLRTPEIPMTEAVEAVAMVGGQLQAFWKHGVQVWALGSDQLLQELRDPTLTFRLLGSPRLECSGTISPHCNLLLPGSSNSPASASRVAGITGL

Compound	IC50
2-(2-fluoro-6-methoxyphenyl)-N-(4-(2-methyl-2,8-diazaspiro[4.5]decan-8-yl)-5-(1-(2,2,2-trifluoroethyl)-1H-pyrazol-4-yl)pyridin-2-yl)pyrimidin-4-amine [Example 136]	≤ 0.01 µM
Cc1cncc(-c2nccc(Nc3cc(N4CCC[C@H](O)C4)c(C(=O)C4CC4)cn3)n2)c1 [Example 1, (S)-cyclopropyl(4-(3-hydroxypiperidin-1-yl)-6-((2-(5-methylpyridin-3-yl)pyrimidin-4-yl)amino)pyridin-3-yl)methanone]	0.01 to 0.05 µM
Nc1cncc(-c2nccc(Nc3cc(N4CCC[C@H](O)C4)c(C(=O)C4CC4)cn3)n2)c1 [Example 2, (S)-(6-((2-(5-aminopyridin-3-yl)pyrimidin-4-yl)amino)-4-(3-hydroxypiperidin-1-yl)pyridin-3-yl)(cyclopropyl)methanone]	0.01 to 0.05 µM
COc1cncc(-c2nccc(Nc3cc(N4CCC[C@H](O)C4)c(C(=O)C4CC4)cn3)n2)c1 [Example 3, (S)-cyclopropyl(4-(3-hydroxypiperidin-1-yl)-6-((2-(5-methoxypyridin-3-yl)pyrimidin-4-yl)amino)pyridin-3-yl)methanone]	0.05 to 0.1 µM
O=C(c1cnc(Nc2ccnc(-c3cccc(O)c3)n2)cc1N1CCC[C@H](O)C1)C1CC1 [Example 4, (S)-cyclopropyl(6-((2-(3-hydroxyphenyl)pyrimidin-4-yl)amino)-4-(3-hydroxypiperidin-1-yl)pyridin-3-yl)methanone]	0.05 to 0.1 µM
COc1cccc(F)c1-c1nccc(Nc2cc(N3CCC[C@H](O)C3)c(C(=O)C3CC3)cn2)n1 [Example 5, (S)-cyclopropyl(6-((2-(2-fluoro-6-methoxyphenyl)pyrimidin-4-yl)amino)-4-(3-hydroxypiperidin-1-yl)pyridin-3-yl)methanone]	0.01 to 0.05 µM
COc1cccc(F)c1-c1nccc(Nc2cc(N3CC(O)C3)c(C(=O)C3CC3)cn2)n1 [Example 6, cyclopropyl(6-((2-(2-fluoro-6-methoxyphenyl)pyrimidin-4-yl)amino)-4-(3-hydroxyazetidin-1-yl)pyridin-3-yl)methanone]	0.01 to 0.05 µM
COc1cccc(F)c1-c1nccc(Nc2cc(N3CCC[C@H](O)C3)c(-c3cnn(C4CCOCC4)c3)cn2)n1 [Example 7, (S)-1-(2-((2-(2-fluoro-6-methoxyphenyl)pyrimidin-4-yl)amino)-5-(1-(tetrahydro-2H-pyran-4-yl)-1H-pyrazol-4-yl)pyridin-4-yl)piperidin-3-ol]	≤ 0.01 µM
COc1cccc(F)c1-c1nccc(Nc2cc(N3CCC[C@H](O)C3)c(C#Cc3cnn(C(F)(F)F)c3)cn2)n1 [Example 8, (S)-1-(2-((2-(2-fluoro-6-methoxyphenyl)pyrimidin-4-yl)amino)-5-((1-(trifluoromethyl)-1H-pyrazol-4-yl)ethynyl)pyridin-4-yl)piperidin-3-ol]	0.01 to 0.05 µM
COc1cccc(F)c1-c1nccc(Nc2cc(N3CCC[C@@H](O)C3)c(C#Cc3cnn(C(F)(F)F)c3)cn2)n1 [Example 9, (R)-1-(2-((2-(2-fluoro-6-methoxyphenyl)pyrimidin-4-yl)amino)-5-((1-(trifluoromethyl)-1H-pyrazol-4-yl)ethynyl)pyridin-4-yl)piperidin-3-ol]	0.01 to 0.05 µM
COc1cccc(F)c1-c1nccc(Nc2cc(N3CC(O)C3)c(C#CC3CCOCC3)cn2)n1 [Example 10, 1-(2-((2-(2-fluoro-6-methoxyphenyl)pyrimidin-4-yl)amino)-5-((tetrahydro-2H-pyran-4-yl)ethynyl)pyridin-4-yl)azetidin-3-ol]	0.01 to 0.05 µM

The remaining lines, values ahead:

IC50	Compound
0.05 to 0.1 µM	2-(2-fluoro-6-methoxyphenyl)-6-((4-((S)-3-hydroxypiperidin-1-yl)-5-(1-(1-methylpiperidin-4-yl)-1H-pyrazol-4-yl)pyrimidin-2-yl)amino)nicotinonitrile [Example 63]
≤ 0.01 µM	6-((6-(2-fluoro-6-methoxyphenyl)-5-nitropyridin-2-yl)amino)-N-((1R,3S)-3-hydroxycyclopentyl)-4-((S)-3-hydroxypiperidin-1-yl)nicotinamide [Example 195]
≤ 0.01 µM	COc1cccc(F)c1-c1nccc(Nc2cc(N3CCC[C@H](O)C3)c(C#CC3CCOCC3)cn2)n1 [Example 11, (S)-1-(2-((2-(2-fluoro-6-methoxyphenyl)pyrimidin-4-yl)amino)-5-((tetrahydro-2H-pyran-4-yl)ethynyl)pyridin-4-yl)piperidin-3-ol]
≤ 0.01 µM	COc1cccc(F)c1-c1nccc(Nc2cc(N3CCC[C@H](O)C3)c(-c3cnn(C)c3)cn2)n1 [Example 12, (S)-1-(2-((2-(2-fluoro-6-methoxyphenyl)pyrimidin-4-yl)amino)-5-(1-methyl-1H-pyrazol-4-yl)pyridin-4-yl)piperidin-3-ol]
≤ 0.01 µM	COc1cccc(F)c1-c1nccc(Nc2cc(N3CCC[C@H](O)C3)c(-c3cnn(C(C)C)c3)cn2)n1 [Example 13, (S)-1-(2-((2-(2-fluoro-6-methoxyphenyl)pyrimidin-4-yl)amino)-5-(1-isopropyl-1H-pyrazol-4-yl)pyridin-4-yl)piperidin-3-ol]
≤ 0.01 µM	COc1cccc(F)c1-c1nccc(Nc2cc(N3CCC[C@H](O)C3)c(-c3cnn(C4CCOC4)c3)cn2)n1 (stereo partly drawn) [Example 14, (3S)-1-(2-((2-(2-fluoro-6-methoxyphenyl)pyrimidin-4-yl)amino)-5-(1-(tetrahydrofuran-3-yl)-1H-pyrazol-4-yl)pyridin-4-yl)piperidin-3-ol]
≤ 0.01 µM	COc1cccc(F)c1-c1nccc(Nc2cc(N3CCC[C@H](O)C3)c(-c3cnn(C4CCN(C)CC4)c3)cn2)n1 [Example 15, (S)-1-(2-((2-(2-fluoro-6-methoxyphenyl)pyrimidin-4-yl)amino)-5-(1-(1-methylpiperidin-4-yl)-1H-pyrazol-4-yl)pyridin-4-yl)piperidin-3-ol]
≤ 0.01 µM	COc1cccc(F)c1-c1nccc(Nc2cc(N3CCC[C@H](O)C3)c(-c3cnn(CC(F)(F)F)c3)cn2)n1 [Example 16, (S)-1-(2-((2-(2-fluoro-6-methoxyphenyl)pyrimidin-4-yl)amino)-5-(1-(2,2,2-trifluoroethyl)-1H-pyrazol-4-yl)pyridin-4-yl)piperidin-3-ol]
≤ 0.01 µM	COc1cccc(F)c1-c1nccc(Nc2cc(N3CCC[C@H](O)C3)c(-c3cnn(CC4CC4)c3)cn2)n1 [Example 17, (S)-1-(5-(1-(cyclopropylmethyl)-1H-pyrazol-4-yl)-2-((2-(2-fluoro-6-methoxyphenyl)pyrimidin-4-yl)amino)pyridin-4-yl)piperidin-3-ol]
≤ 0.01 µM	COc1cccc(F)c1-c1nccc(Nc2cc(N3CCC[C@H](O)C3)c(-c3ccc(C4CCOCC4)cc3)cn2)n1 [Example 18, (S)-1-(2-((2-(2-fluoro-6-methoxyphenyl)pyrimidin-4-yl)amino)-5-(4-(tetrahydro-2H-pyran-4-yl)phenyl)pyridin-4-yl)piperidin-3-ol]
≤ 0.01 µM	COc1cccc(F)c1-c1nccc(Nc2cc(N3CCC[C@H](O)C3)c(-c3ccc(N4CCN(C)CC4)cc3)cn2)n1 [Example 19, (S)-1-(2-((2-(2-fluoro-6-methoxyphenyl)pyrimidin-4-yl)amino)-5-(4-(4-methylpiperazin-1-yl)phenyl)pyridin-4-yl)piperidin-3-ol]
≤ 0.01 µM	COc1cccc(F)c1-c1nccc(Nc2cc(N3CCC[C@H](O)C3)c(-c3ccc(N4CCOCC4)nc3)cn2)n1 [Example 20, (S)-1-(6-((2-(2-fluoro-6-methoxyphenyl)pyrimidin-4-yl)amino)-6′-morpholino-[3,3′-bipyridin]-4-yl)piperidin-3-ol]
0.01 to 0.05 µM	OCc1csc(-c2nccc(Nc3cc(N4CCC[C@H](O)C4)c(-c4cnn(C5CCOCC5)c4)cn3)n2)c1 [Example 21, (S)-1-(2-((2-(4-(hydroxymethyl)thiophen-2-yl)pyrimidin-4-yl)amino)-5-(1-(tetrahydro-2H-pyran-4-yl)-1H-pyrazol-4-yl)pyridin-4-yl)piperidin-3-ol]
≤ 0.01 µM	O[C@H]1CCCN(c2cc(Nc3ccnc(-c4c(F)cccc4F)n3)ncc2-c2cnn(C3CCOCC3)c2)C1 [Example 22, (S)-1-(2-((2-(2,6-difluorophenyl)pyrimidin-4-yl)amino)-5-(1-(tetrahydro-2H-pyran-4-yl)-1H-pyrazol-4-yl)pyridin-4-yl)piperidin-3-ol]
0.01 to 0.05 µM	COc1c(F)ccc(F)c1-c1nccc(Nc2cc(N3CCC[C@H](O)C3)c(-c3cnn(C4CCOCC4)c3)cn2)n1 [Example 23, (S)-1-(2-((2-(3,6-difluoro-2-methoxyphenyl)pyrimidin-4-yl)amino)-5-(1-(tetrahydro-2H-pyran-4-yl)-1H-pyrazol-4-yl)pyridin-4-yl)piperidin-3-ol]
≤ 0.01 µM	COc1ccc(F)c(F)c1-c1nccc(Nc2cc(N3CCC[C@H](O)C3)c(-c3cnn(C4CCOCC4)c3)cn2)n1 [Example 24, (S)-1-(2-((2-(2,3-difluoro-6-methoxyphenyl)pyrimidin-4-yl)amino)-5-(1-(tetrahydro-2H-pyran-4-yl)-1H-pyrazol-4-yl)pyridin-4-yl)piperidin-3-ol]
